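These data come from cells grown in 96-well plates and exposed to compound for 48 hours at five concentrations. GI50 marks 50% less growth.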 Active and inactive are the calls of the source. Rule as the data show it: active = GI50 up to about 1.1 µM and inactive = higher.
Experiments:
Test in all cases: growth of human tumour cells (NCI), 48 h
HOP-62 = system: HOP-62
MOLT-4 = system: MOLT-4
TK-10 = system: TK-10
KM12 = system: KM12
MDA-N = system: MDA-N
NCI/ADR-RES = system: NCI/ADR-RES
HCC 2998 = system: HCC 2998
A498 = system: A498
UACC-62 = system: UACC-62
SF-295 = system: SF-295
786-0 = system: 786-0
UACC-257 = system: UACC-257
A549 = system: A549
RXF 393 = system: RXF 393
SK-MEL-2 = system: SK-MEL-2
MDA-MB-435 = system: MDA-MB-435
LOX IMVI = system: LOX IMVI
HOP-92 = system: HOP-92
SW-620 = system: SW-620
Malme-3M = system: Malme-3M

Measured: GI50

CC1=CC(=O)/C(=C/Nc2nc(-c3ccc([N+](=O)[O-])cc3)cs2)C(=O)O1
inactive: HOP-62 > 100 µM | MOLT-4 61.4 µM | TK-10 > 100 µM | KM12 > 100 µM | MDA-N > 100 µM | NCI/ADR-RES > 100 µM | HCC 2998 > 100 µM | A498 80 µM | UACC-62 > 100 µM | SF-295 > 100 µM | 786-0 > 100 µM | UACC-257 > 100 µM | A549 > 100 µM | RXF 393 27.7 µM | SK-MEL-2 > 100 µM | MDA-MB-435 > 100 µM | LOX IMVI > 100 µM | HOP-92 > 100 µM | SW-620 > 100 µM

COc1ccccc1NC(=S)N/N=C/c1cccc(C)n1
inactive: HOP-62 5.85 µM | MOLT-4 1.34 µM | TK-10 8.99 µM | KM12 6.25 µM | MDA-N 4.17 µM | NCI/ADR-RES 3.31 µM | HCC 2998 10.5 µM | A498 23.6 µM | UACC-62 3.67 µM | SF-295 4.32 µM | 786-0 2.9 µM | UACC-257 3.33 µM | A549 4.16 µM | SK-MEL-2 5.64 µM | MDA-MB-435 5.16 µM | LOX IMVI 2.3 µM | HOP-92 8.09 µM | Malme-3M 6.24 µM | SW-620 3.14 µM

CN(C)Cc1cc(/N=N/c2ccccc2Cl)ccc1O
inactive: HOP-62 10.7 µM | MOLT-4 5.48 µM | TK-10 22.1 µM | KM12 25.9 µM | MDA-N 17.5 µM | NCI/ADR-RES 25.4 µM | HCC 2998 13.5 µM | A498 12.7 µM | UACC-62 18.6 µM | SF-295 16.6 µM | 786-0 15.5 µM | UACC-257 21.1 µM | A549 9.12 µM | RXF 393 20.3 µM | MDA-MB-435 17.7 µM | LOX IMVI 12.6 µM | HOP-92 17.1 µM | Malme-3M 12.6 µM | SW-620 13.3 µM

C=C1C(=O)[C@]23[C@H](O)[C@H]1CC[C@H]2[C@@]12CO[C@@]3(O)C[C@@H]1C(C)(C)CC[C@@H]2O [MEGATHYRIN A]
inactive: HOP-62 > 25 µM | MOLT-4 7.11 µM | TK-10 9.75 µM | KM12 6.22 µM | MDA-N 7.69 µM | NCI/ADR-RES 9.66 µM | HCC 2998 8.69 µM | A498 7.45 µM | SF-295 12.3 µM | 786-0 9.57 µM | UACC-257 6.01 µM | A549 16.2 µM | RXF 393 4.03 µM | MDA-MB-435 4.12 µM | LOX IMVI 4.25 µM | HOP-92 > 25 µM | Malme-3M 6.71 µM | SW-620 5.5 µM

O=C(O)Cc1c[nH]c2ccc(F)cc12
inactive: HOP-62 > 100 µM | MOLT-4 > 100 µM | TK-10 > 100 µM | KM12 > 100 µM | MDA-N > 100 µM | NCI/ADR-RES > 100 µM | HCC 2998 > 100 µM | A498 > 100 µM | UACC-62 > 100 µM | SF-295 > 100 µM | 786-0 > 100 µM | UACC-257 > 100 µM | A549 > 100 µM | RXF 393 > 100 µM | SK-MEL-2 > 100 µM | MDA-MB-435 > 100 µM | LOX IMVI > 100 µM | HOP-92 > 100 µM | SW-620 > 100 µM

CCOC(=O)C1=C(C)N(C)C(=S)NC1c1cccc(O)c1 (stereo not drawn)
inactive: HOP-62 77.4 µM | MOLT-4 37.8 µM | TK-10 > 100 µM | KM12 29 µM | MDA-N 14.6 µM | NCI/ADR-RES 18.7 µM | HCC 2998 34 µM | A498 24.7 µM | UACC-62 63.7 µM | SF-295 25.9 µM | 786-0 37.9 µM | UACC-257 43.3 µM | A549 36.6 µM | RXF 393 24.3 µM | SK-MEL-2 34.3 µM | MDA-MB-435 12.5 µM | LOX IMVI 70.3 µM | HOP-92 22.9 µM | SW-620 37.5 µM
